Assay results reported in PubChem BioAssay AID192 (DTP/NCI, 2004).
Values joined by “and” are separate entries in the source; they are usually repeats but may differ in a detail not shown here. Identical values can stand only once. Inconclusive results and toxic doses are left out. How the source made its calls: active means survival T/C of 150% or more; inactive means T/C below 125% in these data. Peptide text beside a SMILES is read from it. * marks the point of attachment. Cbz = O=C(OCc1ccccc1)*

Test system: BDF1 mice, B16 melanoma ip, median survival T/C
Assay: NCI In Vivo Anticancer Drug Screen. Data for tumor model B16 Melanoma (intraperitoneal) in B6D2F1 (BDF1) mice
Details: endpoint: median survival time, higher = longer survival
Protocol: The antitumor activity of compounds was measured in mice bearing transplantable tumors. Survival or tumor size were measured and the results are expressed as the measurement made in the treated group (T) divided by the measurement made in the vehicle treated control group (C). The tumor model used in this assay is B16 Melanoma (intraperitoneal) in B6D2F1 (BDF1) mice

[1] = dose: 100.0 mg/kg/injection, schedule: Q04DX003 (ip), vehicle: saline
[2] = dose: 200.0 mg/kg/injection, schedule: Q04DX003 (ip), vehicle: saline
[3] = dose: 100.0 mg/kg/injection, schedule: Q04DX003 (ip), vehicle: Klucel (hydroxypropylcellulose) (HPC)
[4] = dose: 100.0 mg/kg/injection, schedule: Q01DX009 (ip), vehicle: saline
[5] = dose: 200.0 mg/kg/injection, schedule: Q01DX009 (ip), vehicle: saline
[6] = dose: 25.0 mg/kg/injection, schedule: Q01DX009 (ip), vehicle: Klucel (hydroxypropylcellulose) (HPC)
[7] = dose: 50.0 mg/kg/injection, schedule: Q01DX009 (ip), vehicle: Klucel (hydroxypropylcellulose) (HPC)
[8] = dose: 100.0 mg/kg/injection, schedule: Q01DX009 (ip), vehicle: Klucel (hydroxypropylcellulose) (HPC)
[9] = dose: 200.0 mg/kg/injection, schedule: Q01DX009 (ip), vehicle: Klucel (hydroxypropylcellulose) (HPC)
[10] = dose: 400.0 mg/kg/injection, schedule: Q01DX009 (ip), vehicle: Klucel (hydroxypropylcellulose) (HPC)
[11] = dose: 50.0 mg/kg/injection, schedule: Q01DX009 (ip), vehicle: saline with Tween-80
[12] = dose: 100.0 mg/kg/injection, schedule: Q01DX009 (ip), vehicle: saline with Tween-80
[13] = dose: 12.5 mg/kg/injection, schedule: Q01DX009 (ip), vehicle: Klucel (hydroxypropylcellulose) (HPC)

Measured: T/C

COCc1ccc(COC)cc1
inactive: [1] 102 % of control | [2] 102 % of control | dose: 400.0 mg/kg/injection, schedule: Q04DX003 (ip), vehicle: saline 100 % of control

O=S(=O)(/N=C1C=C/C(=N/S(=O)(=O)c2ccccc2)C2C3C=CC(C3)C/12)c1ccccc1 (stereo unspecified)
inactive: [3] 92 % of control | dose: 200.0 mg/kg/injection, schedule: Q04DX003 (ip), vehicle: Klucel (hydroxypropylcellulose) (HPC) 86 % of control

Cc1ccc(S(=O)(=O)N(Cc2cccc(CN(S(=O)(=O)c3ccc(C)cc3)S(=O)(=O)c3ccc(C)cc3)c2)S(=O)(=O)c2ccc(C)cc2)cc1
inactive: [3] 87 % of control

Cc1cc(C)c(S(=O)(=O)O)cc1C
inactive: dose: 50.0 mg/kg/injection, schedule: Q01DX009 (ip), vehicle: saline 115 % of control | [4] 104 % of control | [5] 87 % of control

Cc1ccc(NC(=O)Nc2cccc(Cl)c2C)cc1C
inactive: [6] 98 % of control | [7] 86 % of control | [8] 92 % of control

NC(=O)C(CC(=O)OCc1ccccc1)NC(=O)OCc1ccccc1 (stereo unspecified)
inactive: [8] 118 % of control | [9] 107 % of control | [10] 113 % of control

CC(=O)CC(=O)N1CCCCC1C (stereo unspecified)
inactive: [8] 109 % of control | [9] 112 % of control | [10] 110 % of control

N=C(N)SCc1ccc(CSC(=N)N)s1
inactive: dose: 7.5 mg/kg/injection, schedule: Q01DX009 (ip), vehicle: saline 101 % of control | dose: 15.0 mg/kg/injection, schedule: Q01DX009 (ip), vehicle: saline 99 % of control | dose: 30.0 mg/kg/injection, schedule: Q01DX009 (ip), vehicle: saline 104 % of control

ClC1CC[N-]CC1.ClC1CC[N-]CC1.[Cl][Pt+2]([Cl])([Cl])[Cl]
inactive: dose: 3.13 mg/kg/injection, schedule: Q01DX009 (ip), vehicle: saline with Tween-80 104 % of control | dose: 6.25 mg/kg/injection, schedule: Q01DX009 (ip), vehicle: saline with Tween-80 104 % of control | dose: 12.5 mg/kg/injection, schedule: Q01DX009 (ip), vehicle: saline with Tween-80 117 % of control

NC(=O)CNC1=C(N2CC2)C(=O)C(NCC(N)=O)=C(N2CC2)C1=O
inactive: dose: 0.5 mg/kg/injection, schedule: Q01DX009 (ip), vehicle: saline 96 % of control | dose: 1.0 mg/kg/injection, schedule: Q01DX009 (ip), vehicle: saline 115 % of control | dose: 4.0 mg/kg/injection, schedule: Q01DX009 (ip), vehicle: saline 124 % of control

OCCN1CCC2(CC1)SSC1(CCN(CCO)CC1)S2
inactive: [4] 117 % of control | [5] 112 % of control

COC(=O)C1CCCN1C(=O)C(CCCCNC(=O)OCc1ccccc1)NC(=O)OCc1ccccc1 (stereo unspecified) (Cbz-Lys(Cbz)-Pro-OMe; configuration not given here)
inactive: dose: 25.0 mg/kg/injection, schedule: Q01DX009 (ip), vehicle: saline with Tween-80 94 % of control | [11] 98 % of control | [12] 112 % of control | dose: 200.0 mg/kg/injection, schedule: Q01DX009 (ip), vehicle: saline with Tween-80 108 % of control

O=[N+]([O-])CC1(O)CCCCC1
inactive: [13] 102 % of control | [6] 94 % of control

O=c1cc[nH]c(=O)[nH]1
inactive: dose: 32.0 mg/kg/injection, schedule: Q01DX009 (ip), vehicle: Klucel (hydroxypropylcellulose) (HPC) 99 % of control and 100 % of control | dose: 32.0 mg/kg/injection, schedule: Q01DX009 (ip), vehicle: saline with Tween-80 93 % of control | dose: 64.0 mg/kg/injection, schedule: Q01DX009 (ip), vehicle: Klucel (hydroxypropylcellulose) (HPC) 98 % of control and 106 % of control | dose: 64.0 mg/kg/injection, schedule: Q01DX009 (ip), vehicle: saline with Tween-80 93 % of control | dose: 128.0 mg/kg/injection, schedule: Q01DX009 (ip), vehicle: Klucel (hydroxypropylcellulose) (HPC) 101 % of control and 106 % of control | dose: 128.0 mg/kg/injection, schedule: Q01DX009 (ip), vehicle: saline with Tween-80 98 % of control | dose: 256.0 mg/kg/injection, schedule: Q01DX009 (ip), vehicle: Klucel (hydroxypropylcellulose) (HPC) 100 % of control and 102 % of control | dose: 256.0 mg/kg/injection, schedule: Q01DX009 (ip), vehicle: saline with Tween-80 90 % of control | dose: 512.0 mg/kg/injection, schedule: Q01DX009 (ip), vehicle: Klucel (hydroxypropylcellulose) (HPC) 102 % of control and 105 % of control | dose: 512.0 mg/kg/injection, schedule: Q01DX009 (ip), vehicle: saline with Tween-80 92 % of control

O=S(=O)(O)C(Nc1ccccc1)c1ccccc1 (stereo unspecified)
inactive: dose: 100.0 mg/kg/injection, schedule: Q01DX009 (ip), vehicle: saline sonified 93 % of control | dose: 200.0 mg/kg/injection, schedule: Q01DX009 (ip), vehicle: saline sonified 93 % of control | dose: 400.0 mg/kg/injection, schedule: Q01DX009 (ip), vehicle: saline sonified 102 % of control

COc1cc(NS(C)(=O)=O)ccc1Nc1c2ccc([N+](=O)[O-])cc2nc2c(C)cccc12
inactive: dose: 0.08 mg/kg/injection, schedule: Q01DX009 (ip), vehicle: saline with Tween-80 105 % of control | dose: 0.15 mg/kg/injection, schedule: Q01DX009 (ip), vehicle: saline with Tween-80 107 % of control | dose: 0.6 mg/kg/injection, schedule: Q01DX009 (ip), vehicle: saline with Tween-80 122 % of control

N/C(=N\N=C\c1ccc(-c2ccccc2)cc1)N[N+](=O)[O-]
inactive: [6] 93 % of control | [7] 90 % of control | [8] 93 % of control | [9] 86 % of control

CCCCCCCC/C=C\CCCCCCCCN1CC(C(=O)[O][Pb]([CH2]C)([CH2]C)[CH2]C)CC1=O (stereo unspecified)
inactive: dose: 0.75 mg/kg/injection, schedule: Q01DX009 (ip), vehicle: saline with Tween-80 107 % of control | dose: 1.5 mg/kg/injection, schedule: Q01DX009 (ip), vehicle: saline with Tween-80 106 % of control | dose: 3.0 mg/kg/injection, schedule: Q01DX009 (ip), vehicle: saline with Tween-80 102 % of control | dose: 6.0 mg/kg/injection, schedule: Q01DX009 (ip), vehicle: saline with Tween-80 107 % of control

CCCCCCC(C)NCC(O)COc1cccc(C)c1 (stereo unspecified)
inactive: dose: 3.12 mg/kg/injection, schedule: Q01DX009 (ip), vehicle: Klucel (hydroxypropylcellulose) (HPC) 90 % of control | dose: 6.25 mg/kg/injection, schedule: Q01DX009 (ip), vehicle: Klucel (hydroxypropylcellulose) (HPC) 94 % of control | [13] 89 % of control

CCNNC(=O)[C@@H]1[C@H](c2cc(OC)c(OC)c(OC)c2)c2cc3c(cc2[C@H](O)[C@H]1CO)OCO3
inactive: [11] 94 % of control | [12] 86 % of control

COc1cccc2c1C(=O)c1c(O)c3c(c(O)c1C2=O)CC(O)(C(C)=O)CC3OC1CC([N+](C)(C)C)C(O)C(C)O1 (stereo unspecified)
inactive: dose: 1.56 mg/kg/injection, schedule: Q01DX009 (ip), vehicle: water 110 % of control | dose: 3.13 mg/kg/injection, schedule: Q01DX009 (ip), vehicle: water 107 % of control | dose: 6.25 mg/kg/injection, schedule: Q01DX009 (ip), vehicle: water 98 % of control | dose: 12.5 mg/kg/injection, schedule: Q01DX009 (ip), vehicle: water 110 % of control | dose: 25.0 mg/kg/injection, schedule: Q01DX009 (ip), vehicle: water 106 % of control

Cc1ccc(NC(=O)Nc2ccccc2Cl)cc1Cl
inactive: [7] 100 % of control | [8] 104 % of control

CC(=O)[O][Sn]([CH2]c1ccccc1)([CH2]c1ccccc1)[CH2]c1ccccc1
inactive: dose: 1.5 mg/kg/injection, schedule: Q01DX009 (ip), vehicle: other 101 % of control | dose: 3.0 mg/kg/injection, schedule: Q01DX009 (ip), vehicle: other 96 % of control | dose: 6.0 mg/kg/injection, schedule: Q01DX009 (ip), vehicle: other 103 % of control | dose: 6.25 mg/kg/injection, schedule: Q01DX009 (ip), vehicle: other 111 % of control

COC(=O)C(C)CN1CCCCCC1 (stereo unspecified)
inactive: dose: 50.0 mg/kg/injection, schedule: Q04DX003 (ip), vehicle: saline 108 % of control | [1] 102 % of control | [2] 100 % of control

NCCN
inactive: dose: 177.0 mg/kg/injection, schedule: Q01DX009 (ip), vehicle: saline 115 % of control | dose: 266.0 mg/kg/injection, schedule: Q01DX009 (ip), vehicle: saline 96 % of control | dose: 400.0 mg/kg/injection, schedule: Q01DX009 (ip), vehicle: saline 105 % of control
